From US20230407296A1, “Method to Regulate ALOX12-AS1 IncRNA-Mediated Alteration of ALOX12 Protein and to Screen for Novel Drugs to Alter ALOX12 Protein Level” (priority 2021, published 2023)
d = 2'-deoxy (DNA); m = 2'-O-methyl

Assays:
ALOX12 mRNA [1] = conditions: HepG2 cells; cited from earlier work
ALOX12 = target: T1, ALOX12 (Homo sapiens, UniProt P18054); conditions: cited from earlier work
T1 sequence (P18054 1-663): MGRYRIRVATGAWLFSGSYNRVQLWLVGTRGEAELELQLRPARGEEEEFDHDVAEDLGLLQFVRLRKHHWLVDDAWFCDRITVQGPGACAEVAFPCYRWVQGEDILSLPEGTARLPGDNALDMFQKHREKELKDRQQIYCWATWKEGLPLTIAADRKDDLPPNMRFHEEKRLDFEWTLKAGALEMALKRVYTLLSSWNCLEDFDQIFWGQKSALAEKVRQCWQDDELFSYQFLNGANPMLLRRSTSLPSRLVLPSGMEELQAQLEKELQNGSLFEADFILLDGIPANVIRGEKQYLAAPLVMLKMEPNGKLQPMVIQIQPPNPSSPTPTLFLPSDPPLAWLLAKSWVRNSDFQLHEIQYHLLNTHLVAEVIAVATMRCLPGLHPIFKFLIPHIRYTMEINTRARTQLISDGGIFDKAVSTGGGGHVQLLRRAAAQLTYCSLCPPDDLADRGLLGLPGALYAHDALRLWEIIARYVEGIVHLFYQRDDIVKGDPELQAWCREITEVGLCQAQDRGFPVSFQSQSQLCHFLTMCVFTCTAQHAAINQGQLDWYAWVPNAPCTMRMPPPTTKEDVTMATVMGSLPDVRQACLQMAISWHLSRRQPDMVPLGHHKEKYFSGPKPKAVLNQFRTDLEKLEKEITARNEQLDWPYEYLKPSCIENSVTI

ALOX12-AS1-202 = ALOX12-AS1-202 level in ASO-transfected HEK293 cells (multiplex RT-PCR / qPCR); assay type: cell-based, human; conditions: HEK293, ALOX12-AS1-201-targeted ASO, 24 hours after transfection, quantitative PCR
Experimental: (§1) Small interfering RNA (siRNA)-mediated knockdown of ALOX12-AS1 in HEK293 cells was ineffective possibly because of the nuclear localization of the lncRNA. As an alternative approach, multiple isoform-specific oligonucleotides (ASOs) complementary to different regions of ALOX12-AS1-201/202 were designed (FIG. 7A-C).
(§2) Three ALOX12-AS1-202-specific ASOs were designed and two of them (ASO-2 and -3) reduced ALOX12-AS1-202 mRNA levels within 24 hours of transfection (FIGS. 7L&O, red rectangle).
(§3) Total RNA from different cell lines was extracted with Trizol reagent (Catalog number: 15596026; ThermoFisher Scientific, Canada) as per the manufacturer's recommended protocol. […] Absolute quantification of ALOX12-AS1 lncRNA isoforms was performed in a Mastercycler®ep realplex real-time PCR system (Eppendorf, Hamburg, Germany) using SYBR green dye (Catalog number: S7563; ThermoFisher Scientific). […] Real-time PCR data quality control calculations were determined by the SAS program as described previously and the calculated PCR efficiency was between 95%-99%. Quantitative RT-PCR was conducted for different cell-line derived RNAs, and the specificity of each amplified product was confirmed by melting curve analysis. Results were expressed as copy number of specific isoforms per 100 ng of total RNA.

ALOX12-AS1-201 = ALOX12-AS1-201 level in ASO-transfected HEK293 cells (multiplex RT-PCR / qPCR); assay type: cell-based, human
Experimental: as §1, §2, §3

[2] = tested on: ALOX12 protein level in HEK293 cells; assay: ALOX12 protein level in HEK293 cells (immunoblot); assay type: cell-based, human
Experimental: Relative quantification of proteins was performed as described previously [35, 106]. The cell lysates were prepared in 1×RIPA lysis and extraction buffer (catalogue number: 89900, ThermoFisher Scientific) supplemented with 1× Halt protease and phosphatase inhibitor cocktail (catalogue number: 78441, ThermoFisher Scientific). The protein lysates were denatured in Laemmli buffer containing 2% SDS, 10% glycerol, 0.002% bromophenol blue, 0.75 M Tris-HCl pH 6.8, and 100 mM DTT. The immunoblots were imaged using a ChemiDoc XRS+ system (Bio-Rad) and band intensities were quantified using ImageJ (version 1.48) Software [107]. Due to the possibility of inconsistency in the relative expression of housekeeping genes, we normalized all proteins of interest based on the intensity of the Oriole-stained protein profile [92].

ALOX12 mRNA [3] = assay: ALOX12 mRNA level in HEK293 cells (multiplex RT-PCR / qPCR); assay type: cell-based, human
From the text: HEK293 cells were transiently transfected with plasmids expressing ALOX12-AS1-201/202 to study lncRNA-mediated suppression of ALOX12. […] The nucleo-cytoplasmic abundance of ALOX12-AS1 lncRNA may be tightly regulated in HEK293 cells. Therefore, increased transcription of the transfected plasmids in the nucleus may not ensure higher levels of the lncRNAs in the cytoplasm, which may be a requisite for suppression of ALOX12. To overcome this limitation, HEK293 cells were transfected with in vitro transcribed ALOX12-AS1-201/202 mRNAs to ensure high cytoplasmic abundance of the antisense lncRNAs. […]
as §3

**Q.** For `CCCCCCCC/C=C/CCCCCCCC(=O)O` [elaidic acid], which “reduction of ALOX12 mRNA expression” value (ALOX12 mRNA [1]) is on record?
**A.** The value was 1.8 fold.

**Q.** Which “inhibition of ALOX12” value (ALOX12) does the source give for `O=c1cc(-c2ccccc2)oc2cc(O)c(O)c(O)c12` [baicalein, 5,6,7-Trihydroxyflavone] here?
**A.** Its value is “can be inhibited”.

**Q.** And the “selectivity for ALOX12 over other ALOXs” value (ALOX12; inhibits other ALOXs)?
**A.** The value was “not selective for ALOX12”.

**Q.** With “mA*mG*mA*mA*mC*T*G*T*C*A*A*T*A*A*T*mC*mU*mU*mA*mC (antisense AGAACTGTCAATAATCUUAC; sugars from the 5' end m5 d10 m5, all phosphorothioate, methylation of C not given here) [ASO-4, ALOX12-AS1-201-targeted gapmer ASO]” as the compound, how does the ALOX12-AS1-202 isoform level (ALOX12-AS1-202) read?
**A.** The ALOX12-AS1-202 isoform level was “significant reduction”.

**Q.** And the ALOX12-AS1-201 isoform level (ALOX12-AS1-201; HEK293, 24 hours after transfection, quantitative PCR)?
**A.** Its ALOX12-AS1-201 isoform level is “significant reduction”.

**Q.** And the “knockdown of ALOX12-AS1-201” value (ALOX12-AS1-201; HEK293, ALOX12-AS1-201-targeted ASOs, within 24 hours of transfection, multiplex RT-PCR)?
**A.** Its value is roughly 27%.

**Q.** And the ALOX12 protein level ([2]; HEK293, ALOX12-AS1-201-targeted ASO, 24 hours after transfection, quantified immunoblot)?
**A.** Its ALOX12 protein level is “significantly reduced”.

**Q.** What about the ALOX12 protein level ([2]; HEK293, ALOX12-AS1-201-targeted ASOs, immunoblot) of the same compound?
**A.** Its ALOX12 protein level is “dramatically reduced”.

**Q.** And the “ALOX12 mRNA level” value (ALOX12 mRNA [3]; HEK293, ALOX12-AS1-201-targeted ASO, 24 hours after transfection, quantitative PCR)?
**A.** The value was “unchanged”.

**Q.** And the “ALOX12 mRNA levels” value (ALOX12 mRNA [3]; HEK293, ALOX12-AS1-201-targeted ASOs, multiplex RT-PCR)?
**A.** Its value is “relatively unaltered”.
